{
  "source": "patent US8158621B2",
  "about": "“Methods of treating or preventing autoimmune diseases with 2,4-pyrimidinediamine compounds” (Rigel Pharmaceuticals, Inc., priority 2002, dated 2012)",
  "note": "pIC50: −log10 of the molar value.",
  "data": [
    {"system": "cultured human mast cells (CHMC)", "assay": "CHMC low cell density IgE activation: tryptase assay", "assay_type": "cell-based", "settings": "Low Density; read-out: CHMC anti-IgE Tryptase", "in_short": "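Cells pelleted, taken up in warm MT, plated at 1000-1500/well, held 1 hr 37° C. Anti-IgE added, 30 min 37° C. Plates spun; supernatant mixed with tryptase substrate, 30 min RT.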", "values": [
      {"smiles": "O=C(O)CNc1cccc(Nc2ncc(F)c(Nc3cccc(OCCO)c3)n2)c1", "note": "[Compound R950230]", "pIC50": 5.10}
    ]},
    {"target": "T1, Syk kinase (Homo sapiens, UniProt P43405)", "T1 construct": "purchased Upstate, Lake Placid NY", "assay": "Syk kinase biochemical fluorescence polarization assay", "settings": "isolated Syk kinase", "values": [
      {"smiles": "CN(C)CCOc1ccc(Nc2ncc(F)c(Nc3cccc(O)c3)n2)cc1", "note": "[Compound R909236]", "Syk kinase catalyzed phosphorylation of a peptide substrate, IC50s": "micromolar range"}
    ]},
    {"target": "T1, Syk kinase", "assay": "Syk kinase biochemical fluorescence polarization assay", "settings": "isolated Syk kinase, fluorescence polarization, 4 uM ATP", "values": [
      {"smiles": "CNC(=O)COc1cccc(Nc2ncc(F)c(Nc3ccc4c(c3)C(O)CCC4)n2)c1", "note": "(racemic) [Compound R926949]", "pIC50": 7.12},
      {"smiles": "CNC(=O)COc1cccc(Nc2ncc(F)c(Nc3ccc4c(c3)NC(=O)CO4)n2)c1", "note": "[Compound R908701]", "pIC50": 7.66},
      {"smiles": "CN(C)CCOc1ccc(Nc2ncc(F)c(Nc3cccc(O)c3)n2)cc1", "note": "[Compound R909236]", "pIC50": 5.68},
      {"smiles": "CNC(=O)COc1cccc(Nc2ncc(F)c(Nc3ccc4c(c3)NC(C)(C)CO4)n2)c1", "note": "[Compound R909309]", "pIC50": 7.05},
      {"smiles": "Cc1cnc(Nc2ccc3c(c2)OCCO3)nc1Nc1ccc2c(c1)OCCO2", "note": "[Compound R926242]", "pIC50": 5.74},
      {"smiles": "CCOC(=O)c1cnc(Nc2ccc3c(c2)OCCO3)nc1Nc1ccc2c(c1)OCCO2", "note": "[Compound R926252]", "pIC50": "< 5.00"},
      {"smiles": "CCOC(=O)c1cnc(Nc2cccc3cn[nH]c23)nc1Nc1cccc2cn[nH]c12", "note": "[Compound R926321]", "pIC50": 2.30},
      {"smiles": "O=C(c1cc2cc(Nc3ncc(F)c(Nc4cccc(O)c4)n3)ccc2o1)N1CCNCC1", "note": "[Compound R926500]", "pIC50": 6.03},
      {"smiles": "CCOC(=O)c1cnc(Nc2ccc(OCC(=O)N3CCCC3)cc2)nc1Nc1ccc(OCC(=O)N2CCCC2)cc1", "note": "[Compound R926562]", "pIC50": "< 5.00"},
      {"smiles": "Oc1c(Cl)cc(Nc2ncc(F)c(Nc3ccc4c(c3)OCCO4)n2)cc1Cl", "note": "[Compound R926763]", "pIC50": 7.62},
      {"smiles": "COc1cc(Nc2ncc(F)c(Nc3cccc(O)c3)n2)cc(OC)c1", "note": "[Compound R926780]", "pIC50": 6.97},
      {"smiles": "CCOC(=O)COc1cccc(Nc2ncc(C(=O)OCC)c(Nc3ccc4c(c3)OCCO4)n2)c1", "note": "[Compound R926797]", "pIC50": "< 5.00"},
      {"smiles": "CCOC(=O)COc1cccc(Nc2ncc(C(=O)OCC)c(Nc3cccc(O)c3)n2)c1", "note": "[Compound R926798]", "pIC50": "< 5.00"},
      {"smiles": "COc1ccc(Nc2ncc(F)c(Nc3ccc(OC)c(Cl)c3)n2)cc1Cl", "note": "[Compound R926946]", "pIC50": 4.99},
      {"smiles": "COC(=O)C1Cc2cc(Nc3ncc(F)c(Nc4ccc(OC(F)(F)F)c(Cl)c4)n3)ccc2O1", "note": "(stereo not shown) [Compound R926953]", "pIC50": 5.52},
      {"smiles": "CNC(=O)COc1cccc(Nc2ncc(F)c(Nc3cc(C)ccn3)n2)c1", "note": "[Compound R927016]", "pIC50": 6.02},
      {"smiles": "Cc1ccc(Nc2nc(Nc3cccc(O)c3)ncc2F)nc1", "note": "[Compound R927017]", "pIC50": 5.63},
      {"smiles": "Oc1cccc(Nc2ncc(F)c(Nc3ccc(Cl)cn3)n2)c1", "note": "[Compound R927020]", "pIC50": "< 5.00"},
      {"smiles": "CNC(=O)COc1cccc(Nc2ncc(F)c(Nc3ccc(Cl)c(OC)c3)n2)c1", "note": "[Compound R927042]", "pIC50": 7.29},
      {"smiles": "Cn1ncc2cc(Nc3ncc(F)c(Nc4ccc(Cl)nc4)n3)ccc21", "note": "[Compound R935375]", "pIC50": 5.55},
      {"smiles": "CC1(C)Oc2ccc(Nc3nc(Nc4ccc5c(c4)NC(=O)C(F)(F)O5)ncc3F)cc2NC1=O", "note": "[Compound R940351]", "pIC50": 6.60},
      {"smiles": "CC1(C)Oc2ccc(Nc3nc(Nc4ccc(Cl)c(Cl)c4)ncc3F)nc2NC1=O", "note": "[Compound R940373]", "pIC50": "< 5.00"},
      {"smiles": "CC1(C)Oc2ccc(Nc3nc(Nc4ccc5cn[nH]c5c4)ncc3F)nc2NC1=O", "note": "[Compound R940380]", "pIC50": 7.54},
      {"smiles": "CC1(C)Oc2ccc(Nc3nc(Nc4cccc(C(C)(C)C)c4)ncc3F)nc2NC1=O", "note": "[Compound R940381]", "pIC50": 2.30},
      {"smiles": "COc1c(C)cc(Nc2nc(Nc3cccc(OCCN4CCNCC4)c3)ncc2F)cc1C", "note": "[Compound R945157]", "pIC50": 5.75},
      {"smiles": "CCOc1ccc(Nc2ncc(F)c(Nc3ccc4c(n3)NC(=O)CO4)n2)cc1", "note": "[Compound R945407]", "pIC50": "< 5.00"},
      {"smiles": "COc1ccc(Nc2ncc(F)c(Nc3ccc4c(n3)NC(=O)CO4)n2)cc1OC", "note": "[Compound R945422]", "pIC50": 7.06},
      {"smiles": "CC(C)c1cccc(Nc2ncc(F)c(Nc3ccc4c(n3)NC(=O)CO4)n2)c1", "note": "[Compound R945434]", "pIC50": "< 5.00"}
    ]},
    {"system": "cultured human mast cells (CHMC)", "assay": "CHMC low cell density ionomycin activation: tryptase assay", "assay_type": "cell-based", "settings": "Low Density; read-out: CHMC Ionomycin Tryptase", "values": [
      {"smiles": "O=C(O)CNc1cccc(Nc2ncc(F)c(Nc3cccc(OCCO)c3)n2)c1", "note": "[Compound R950230]", "pIC50": "< 5.00"}
    ]},
    {"system": "Human Jurkat T-cells (clone N)", "assay": "Jurkat T-cell activation (anti-TCR, CD69 upregulation)", "assay_type": "cell-based", "settings": "not given", "in_short": "(§1)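 Jurkat cells in RPMI + 5% FBS preincubated with compound 1 h at 37 °C, then stimulated with anti-TCR C305 at 500 ng/ml for 20 h. CD69 surface expression stained with anti-CD69-APC and read by flow cytometry; IC50 versus solvent-only control.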", "values": [
      {"smiles": "CNC(=O)COc1cccc(Nc2ncc(F)c(Nc3ccc4c(c3)NC(=O)CO4)n2)c1", "note": "[Compound R908701]", "pIC50": 6.52},
      {"smiles": "CN(C)CCOc1ccc(Nc2ncc(F)c(Nc3cccc(O)c3)n2)cc1", "note": "[Compound R909236]", "pIC50": "< 5.00"},
      {"smiles": "CCOC(=O)c1cnc(Nc2cccc3cn[nH]c23)nc1Nc1cccc2cn[nH]c12", "note": "[Compound R926321]", "pIC50": 5.89},
      {"smiles": "O=C(c1cc2cc(Nc3ncc(F)c(Nc4cccc(O)c4)n3)ccc2o1)N1CCNCC1", "note": "[Compound R926500]", "pIC50": 5.63},
      {"smiles": "CCOC(=O)c1cnc(Nc2ccc(OCC(=O)N3CCCC3)cc2)nc1Nc1ccc(OCC(=O)N2CCCC2)cc1", "note": "[Compound R926562]", "pIC50": 5.90},
      {"smiles": "COc1cc(Nc2ncc(F)c(Nc3cccc(O)c3)n2)cc(OC)c1", "note": "[Compound R926780]", "pIC50": 5.67},
      {"smiles": "CCOC(=O)COc1cccc(Nc2ncc(C(=O)OCC)c(Nc3ccc4c(c3)OCCO4)n2)c1", "note": "[Compound R926797]", "pIC50": "< 5.00"},
      {"smiles": "CCOC(=O)COc1cccc(Nc2ncc(C(=O)OCC)c(Nc3cccc(O)c3)n2)c1", "note": "[Compound R926798]", "pIC50": "< 5.00"},
      {"smiles": "CNC(=O)COc1cccc(Nc2ncc(F)c(Nc3cc(C)ccn3)n2)c1", "note": "[Compound R927016]", "pIC50": 5.15},
      {"smiles": "O=C(O)CNc1cccc(Nc2ncc(F)c(Nc3cccc(OCCO)c3)n2)c1", "note": "[Compound R950230]", "pIC50": 5.08}
    ]},
    {"system": "Human Jurkat T-cells (clone N)", "assay": "Jurkat T-cell activation (anti-TCR, CD69 upregulation)", "assay_type": "cell-based", "settings": "Homo sapiens, Jurkat", "in_short": "as §1", "values": [
      {"smiles": "Cc1cnc(Nc2ccc3c(c2)OCCO3)nc1Nc1ccc2c(c1)OCCO2", "note": "[Compound R926242]", "pIC50": 5.42},
      {"smiles": "CCOC(=O)c1cnc(Nc2ccc3c(c2)OCCO3)nc1Nc1ccc2c(c1)OCCO2", "note": "[Compound R926252]", "pIC50": "< 5.00"},
      {"smiles": "Oc1c(Cl)cc(Nc2ncc(F)c(Nc3ccc4c(c3)OCCO4)n2)cc1Cl", "note": "[Compound R926763]", "pIC50": 5.43},
      {"smiles": "COc1ccc(Nc2ncc(F)c(Nc3ccc(OC)c(Cl)c3)n2)cc1Cl", "note": "[Compound R926946]", "pIC50": 5.03},
      {"smiles": "Cc1ccc(Nc2nc(Nc3cccc(O)c3)ncc2F)nc1", "note": "[Compound R927017]", "pIC50": 5.09}
    ]}
  ]
}
